In ChEMBL document CHEMBL1909294, “Translating clinical findings into knowledge in drug safety evaluation--drug induced liver injury prediction system (DILIps)” (PLoS Comput Biol, 2011):

Experiments:
Hepatotoxicity [1] = test system: Hepatotoxicity;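 as to HepSE bilirubinemia: bilirubinemia hepatic side effect score drawn from the DILIps training data, a prediction system for drug-induced liver injury; call rule not given here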;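 as to HepSE cholecystitis: Cholecystitis-related hepatic side effect score drawn from the DILIps (drug-induced liver injury prediction) training data set; call rule not given here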;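 as to HepSE cholelithiasis: hepatic side effect score for cholelithiasis, drawn from the DILIps training data for predicting drug-induced liver injury; call rule not given here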;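 as to HepSE cirrhosis: cirrhosis hepatic side effect score taken from the DILIps (drug-induced liver injury prediction) training set; call rule not given here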;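 as to HepSE elevated liver function tests: hepatic side effect score for raised liver function tests, as recorded in the DILIps training set used for predicting drug-induced liver injury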; as to HepSE hepatic failure: call rule not given here;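 as to HepSE hepatomegaly: hepatic side effect score for hepatomegaly, taken from the training set of the DILIps drug-induced liver injury prediction system; call rule not given here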
Hepatotoxicity [2] = test system: Hepatotoxicity; remark: listed apart in the source;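 as to HepSE bilirubinemia: bilirubinemia hepatic side effect score drawn from the DILIps training data, a prediction system for drug-induced liver injury; call rule not given here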;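 as to HepSE cholecystitis: Cholecystitis-related hepatic side effect score drawn from the DILIps (drug-induced liver injury prediction) training data set; call rule not given here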;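 as to HepSE cholelithiasis: hepatic side effect score for cholelithiasis, drawn from the DILIps training data for predicting drug-induced liver injury; call rule not given here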;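 as to HepSE cirrhosis: cirrhosis hepatic side effect score taken from the DILIps (drug-induced liver injury prediction) training set; call rule not given here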;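 as to HepSE elevated liver function tests: hepatic side effect score for raised liver function tests, as recorded in the DILIps training set used for predicting drug-induced liver injury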; as to HepSE hepatic failure: call rule not given here
Hepatotoxicity [3] = test system: Hepatotoxicity; remark: listed apart in the source;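 as to HepSE bilirubinemia: bilirubinemia hepatic side effect score drawn from the DILIps training data, a prediction system for drug-induced liver injury; call rule not given here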;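 as to HepSE cholecystitis: Cholecystitis-related hepatic side effect score drawn from the DILIps (drug-induced liver injury prediction) training data set; call rule not given here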;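 as to HepSE cholelithiasis: hepatic side effect score for cholelithiasis, drawn from the DILIps training data for predicting drug-induced liver injury; call rule not given here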;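 as to HepSE cirrhosis: cirrhosis hepatic side effect score taken from the DILIps (drug-induced liver injury prediction) training set; call rule not given here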;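 as to HepSE elevated liver function tests: hepatic side effect score for raised liver function tests, as recorded in the DILIps training set used for predicting drug-induced liver injury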; as to HepSE hepatic failure: call rule not given here
Hepatotoxicity [4] = test system: Hepatotoxicity; remark: listed apart in the source;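 as to HepSE bilirubinemia: bilirubinemia hepatic side effect score drawn from the DILIps training data, a prediction system for drug-induced liver injury; call rule not given here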;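 as to HepSE cholecystitis: Cholecystitis-related hepatic side effect score drawn from the DILIps (drug-induced liver injury prediction) training data set; call rule not given here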;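 as to HepSE cholelithiasis: hepatic side effect score for cholelithiasis, drawn from the DILIps training data for predicting drug-induced liver injury; call rule not given here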;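 as to HepSE cirrhosis: cirrhosis hepatic side effect score taken from the DILIps (drug-induced liver injury prediction) training set; call rule not given here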;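 as to HepSE elevated liver function tests: hepatic side effect score for raised liver function tests, as recorded in the DILIps training set used for predicting drug-induced liver injury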; as to HepSE hepatic failure: call rule not given here
Hepatotoxicity [5] = test system: Hepatotoxicity; remark: listed apart in the source; as to HepSE hepatic failure: call rule not given here
Hepatotoxicity [6] = test system: Hepatotoxicity; remark: listed apart in the source; as to HepSE hepatic failure: call rule not given here
Hepatotoxicity [7] = test system: Hepatotoxicity; remark: listed apart in the source
Hepatotoxicity [8] = test system: Hepatotoxicity; remark: listed apart in the source
Hepatotoxicity [9] = test system: Hepatotoxicity; remark: listed apart in the source
Hepatotoxicity [10] = test system: Hepatotoxicity; remark: listed apart in the source
Hepatotoxicity [11] = test system: Hepatotoxicity; remark: listed apart in the source
Hepatotoxicity [12] = test system: Hepatotoxicity; remark: listed apart in the source
Hepatotoxicity [13] = test system: Hepatotoxicity; remark: listed apart in the source
Hepatotoxicity [14] = test system: Hepatotoxicity; remark: listed apart in the source

Structure (SMILES)	HepSE_bilirubinemia (Hepatotoxicity [1])	HepSE_cholecystitis (Hepatotoxicity [2])	HepSE_cholelithiasis (Hepatotoxicity [3])	HepSE_cirrhosis (Hepatotoxicity [4])	HepSE_elevated liver function tests (Hepatotoxicity [5])	HepSE_hepatic failure (Hepatotoxicity [6])	HepSE_hepatic necrosis (Hepatotoxicity [7])	HepSE_hepatitis (Hepatotoxicity [8])	HepSE_hepatomegaly (Hepatotoxicity [9])	HepSE_jaundice (Hepatotoxicity [10])	HepSE_liver disease (Hepatotoxicity [11])	HepSE_liver fatty (Hepatotoxicity [12])	HepSE_liver function tests abnormal (Hepatotoxicity [13])	HepSE_Combined Scores (Hepatotoxicity [14])
COc1ccc(OC)c(C(O)CNC(=O)CN)c1 (configuration not stated) [MIDODRINE]	0	0	0	0	0	0	0	0	0	0	0	0	0	0
CO[C@H]1/C=C/O[C@@]2(C)Oc3c(C)c(O)c4c(O)c(c5c(nc6cc(C)ccn65)c4c3C2=O)NC(=O)/C(C)=C\C=C\[C@H](C)[C@H](O)[C@@H](C)[C@@H](O)[C@@H](C)[C@H](OC(C)=O)[C@@H]1C [RIFAXIMIN]	0	0	0	0	0	0	0	0	0	0	0	0	0	0
CCN(CC)CCCC(C)Nc1ccnc2cc(Cl)ccc12 (configuration not stated) [CHLOROQUINE]	0	0	0	0	0	0	0	0	0	0	0	0	0	0
CN1CCC(=C2c3ccccc3C=Cc3ccccc32)CC1 [CYPROHEPTADINE]	0	0	0	0	0	1	0	1	0	1	0	0	0	3
NNC(=O)c1ccncc1 [ISONIAZID]	1	0	0	0	0	0	0	0	0	1	0	0	0	2
Cc1cnc(NC(=O)C2=C(O)c3ccccc3S(=O)(=O)N2C)s1 [MELOXICAM]	1	0	0	0	0	1	0	1	0	1	0	0	0	4
CCN(CC)CCN1C(=O)CN=C(c2ccccc2F)c2cc(Cl)ccc21 [FLURAZEPAM]	0	0	0	0	0	0	0	0	0	0	0	0	0	0
O=[As][As+](=O)[O-] (configuration not stated) [ARSENIC TRIOXIDE]	0	0	0	0	0	0	0	0	0	0	0	0	0	0
CC1(C)S[C@@H]2[C@H](NC(=O)C(C(=O)O)c3ccccc3)C(=O)N2[C@H]1C(=O)O (some centres not stated) [CARBENICILLIN]	0	0	0	0	0	0	0	0	0	0	0	0	0	0
C[C@@H](CN1CC(=O)NC(=O)C1)N1CC(=O)NC(=O)C1 [DEXRAZOXANE]	0	0	0	0	0	0	0	0	0	0	0	0	0	0
CCOC(=O)C1=C(C)NC(C)=C(C(=O)OC)C1c1cccc(Cl)c1Cl (configuration not stated) [FELODIPINE]	0	0	0	0	0	0	0	1	0	0	0	0	0	1
NC(=O)N1c2ccccc2CC(=O)c2ccccc21 [OXCARBAZEPINE]	0	0	1	0	0	0	0	0	0	0	0	0	1	2
COc1ccnc(C[S+]([O-])c2nc3ccc(OC(F)F)cc3[nH]2)c1OC (configuration not stated) [PANTOPRAZOLE]	1	1	1	0	0	1	0	1	0	1	0	0	1	7
COc1ccc([C@@H]2Sc3ccccc3N(CCN(C)C)C(=O)[C@@H]2OC(C)=O)cc1 [DILTIAZEM]	0	0	0	0	0	0	0	0	0	0	0	0	0	0
CCC(=O)O[C@](Cc1ccccc1)(c1ccccc1)[C@H](C)CN(C)C [PROPOXYPHENE]	0	0	0	0	0	0	0	0	0	1	0	0	1	2
CCCCN1CCCCC1C(=O)Nc1c(C)cccc1C (configuration not stated) [BUPIVACAINE]	0	0	0	0	0	0	0	0	0	0	1	0	0	1
NC12CC3CC(CC(C3)C1)C2 [AMANTADINE]	0	0	0	0	0	0	0	0	0	0	0	0	0	0
O=c1[nH]c(=O)n([C@H]2C[C@H](O)[C@@H](CO)O2)cc1C(F)(F)F [TRIFLURIDINE]	0	0	0	0	0	0	0	0	0	0	0	0	0	0
